# Assay results taken from US20240327401A1, “FUSED RING COMPOUND, PHARMACEUTICAL COMPOSITION, AND APPLICATION THEREOF” (EVOPOINT BIOSCIENCES CO., LTD., priority 2021, published 2024).
# Columns and labels:
# [1] = molecular target: T1, SOS1/KRAS G12C protein binding (Homo sapiens, UniProt Q07889); assay: Inhibition of SOS1/KRAS G12C protein binding (665 nm/615 nm ratio); conditions: 15 nM KRAS G12C (aa 1-169), 2.5 nM His-SOS1 (aa 564-1049); nonlinear regression
# T1 construct: His-SOS1 (aa 564-1049) protein; purchased Pharmaron Beijing Co., Ltd. 20200717 (His-SOS1); 20200707 (KRAS G12C)
# T1 sequence (Q07889 564-1049): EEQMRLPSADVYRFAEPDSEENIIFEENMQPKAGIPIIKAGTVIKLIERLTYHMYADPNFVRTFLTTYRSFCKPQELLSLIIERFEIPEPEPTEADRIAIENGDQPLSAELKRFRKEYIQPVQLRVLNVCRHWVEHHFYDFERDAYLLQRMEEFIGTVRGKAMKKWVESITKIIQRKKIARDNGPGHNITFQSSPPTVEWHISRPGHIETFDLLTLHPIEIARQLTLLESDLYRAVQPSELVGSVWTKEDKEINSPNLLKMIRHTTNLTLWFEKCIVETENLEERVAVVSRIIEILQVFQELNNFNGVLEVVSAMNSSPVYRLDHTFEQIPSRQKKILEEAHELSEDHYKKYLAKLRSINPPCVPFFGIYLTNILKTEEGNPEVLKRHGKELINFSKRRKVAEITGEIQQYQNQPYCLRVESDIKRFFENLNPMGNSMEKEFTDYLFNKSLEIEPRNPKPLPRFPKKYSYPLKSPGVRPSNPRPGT
# Experimental: Efficacy Example 2: Evaluation of Inhibition of SOS1/KRAS G12C Protein Binding
# A test compound was dissolved in 100% DMSO to give a solution at a concentration of 10 mM. 10 μL of the solution was taken and 3-fold diluted with 100% DMSO to prepare test compound solutions with concentrations of 10000 nM to […], for a total of 11 concentrations. The compound solutions at different concentrations were then transferred to a 384-well plate at 0.1 μL/well using a sonic droplet device Echo (Labcyte), and 2 replicate wells were set for each concentration.
# A 15 nM KRAS G12C (aa 1-169) protein (Pharmaron Beijing Co., Ltd., 20200707) was transferred to the 384-well reaction plate at 5 μL/well using the sonic droplet device Echo (Labcyte), and then the reaction plate was centrifuged in a centrifuge (Eppendorf, 5810R) at 1000 rpm/min for 1 min.
# A 2.5 nM His-SOS1 (aa 564-1049) protein (Pharmaron Beijing Co., Ltd., 20200717) was transferred to the 384-well reaction plate at 5 μL/well using the sonic droplet device Echo (Labcyte), and then the reaction plate was centrifuged in a centrifuge (Eppendorf, 5810R) at 1000 rpm/min for 1 min and incubated at 25° C. for 15 min.
# A mixed solution of Antibody 1 (MAb Anti-6his-Tb cryptate Gold, Cisbio, 61HI2TLA) and Antibody 2 (MAb Anti-GST-XL665, Cisbio, 61GSTXLA) was transferred to the 384-well reaction plate at 10 μL/well using the sonic droplet device Echo (Labcyte), and then the reaction plate was centrifuged in a centrifuge (Eppendorf, 5810R) at 1000 rpm/min for 1 min and incubated at 25° C. for 120 min.
# The 665 nm/615 nm optical density ratio was read using an Envision multifunctional microplate reader (Perkin Elmer, Envision 2104).
# Analysis of Original Data:
# The IC50 values of the compounds were fitted by a nonlinear regression equation of Graphpad Prism 8. The results are shown in Table 2: • Negative control: DMSO
# The IC50 (half maximal inhibitory concentration) values of the compounds were calculated using the following non-linear fitting equation:
# [formula] • X: Log of cpd concentration • Y: 665 nm/615 nm ratio
# [2] = test system: ERK phosphorylation in DLD-1 cells; assay: In-cell Western blot assay for ERK phosphorylation in DLD-1 cells; type: cell-based; conditions: Homo sapiens, p-ERK signal corrected using DMSO and BI-3406, four-parameter fit
# Experimental: Efficacy Example 1: In-cell Western Blot Assay for ERK Phosphorylation in DLD-1 Cells
# DLD-1 cells (ATCC, CCL-221) were thawed and cultured in a culture medium containing RPMI1640 (Gibco, A10491-01), 10% fetal bovine serum (FBS) (Transgene, FS201-02) and 1% antibiotic P/S (Gibco, 15140-122) for 3 days until the cell viability was good. The cells were inoculated into a 384-well plate and incubated at 37° C. with 5% CO2 overnight. A test compound, a positive control compound, and a negative control were added. The compound was at concentrations of 10000 nM to 1.52 nM (3-fold dilution) and […], for a total of 10 concentrations. The mixture was well mixed and incubated at 37° C. with 5% CO2. The cells were washed twice with PBS (Solarbio, P1010), and then a blocking buffer was added. After 1 h of blocking at room temperature, a primary antibody mixture (phospho-p44/42 MAPK (T202/Y204) Rabbit mAb (CST, […]), GAPDH (D4C6R) Mouse mAb) (CST, 97166S) was added, followed by overnight incubation at 4° C. The cells were washed 3 times with PBST (PBS containing 0.05% Tween-20 (Solarbio, T8220)), and a secondary antibody mixture (goat anti rabbit 800CW (LI-COR, 926-32211), goat anti mouse 680RD (LI-COR, 926-68070)) was added, followed by incubation at room temperature in the dark. The 384-well plate was reversed and centrifuged at 1000 rpm for 1 min, and read on an Odyssey CLx fluorescence imaging system (LI-COR) to obtain fluorescence signal values, which were corrected using DMSO and BI-3406.
# [formula] • H=Ave (DMSO) • L=Ave (BI-3406) • SD (H)=STDEV (DMSO) • SD (L)=STDEV (BI-3406)
# The IC50 values of the compounds were calculated using a four-parameter fitting algorithm, specifically as follows:
# [formula] • X: Log of cpd concentration • Y: Ave (relative pERK) • Top and Bottom: Plateaus in same units as Y • log IC50: same log units as X • HillSlope: Slope factor or Hill slope.
SMILES,IC50 [1] [µM],IC50 [2] [µM]
Cc1nc(N[C@H](C)c2cccc(C(F)F)c2F)c2cn(C3(C(F)F)CC3)c(=O)c(O[C@@H]3CCOC3)c2n1 [SZ-022353],0.0175,0.377
Cc1nc(N[C@H](C)c2cccc(C(F)F)c2F)c2cn(C3(C(F)F)CC3)c(=O)c(S(C)(=O)=O)c2n1 [SZ-022307],0.0259,0.253
Cc1nc(N[C@H](C)c2cccc(C(F)F)c2F)c2cn(C3(C(F)F)CC3)c(=O)c(OCC(F)(F)F)c2n1 [SZ-022312],0.0179,0.601
Cc1nc(N[C@H](C)c2cccc(C(F)F)c2F)c2cn(C3(C(F)F)CC3)c(=O)c(N(C)C)c2n1 [SZ-022251],,0.146
COCC1(n2cc3c(N[C@H](C)c4cccc(C(F)F)c4F)nc(C)nc3c(OC)c2=O)CC1 [SZ-022346],0.03,1.02
COc1c(=O)n(C2(C(F)F)CC2)cc2c(N[C@H](C)c3cccc(C(F)(F)CO)c3F)nc(C)nc12 [SZ-022329],0.00263,0.417
COc1c(=O)n(C2(CO)CC2)cc2c(N[C@H](C)c3cccc(C(F)F)c3F)nc(C)nc12 [SZ-022347],0.0601,
COc1c(=O)n(C2(C(F)(F)F)CC2)cc2c(N[C@H](C)c3cccc(C(C)(F)F)c3F)nc(C)nc12 [SZ-022358],0.00479,0.222
Cc1nc(N[C@H](C)c2cccc(C(F)F)c2F)c2cn(C3(C(F)F)CC3)c(=O)c(OC3CC3)c2n1 [SZ-022299],0.0224,0.751
[2H]C([2H])([2H])Oc1c(=O)n(C2(C(F)(F)F)CC2)cc2c(N[C@H](C)c3cccc(C(F)F)c3F)nc(C)nc12 [SZ-022354],0.0218,0.138
CCOc1c(=O)n(C2(C(F)F)CC2)cc2c(N[C@H](C)c3cccc(C(C)(F)F)c3F)nc(C)nc12 [SZ-022338],0.0121,0.334
CCOc1c(=O)n(C2(C)CC2)cc2c(N[C@H](C)c3cccc(C(F)(F)F)c3C)nc(C)nc12 [SZ-022341],0.00776,0.161
COc1c(=O)n(C2(C(F)F)CC2)cc2c(N[C@H](C)c3cc(N)cc(C(F)(F)F)c3)nc(C)nc12 [SZ-022327],0.00505,0.153
COc1c(=O)n(C2(C)CC2)cc2c(N[C@H](C)c3cccc(C(C)(F)F)c3F)nc(C)nc12 [SZ-022356],0.00436,0.218
COc1c(=O)n(C2(C(F)F)CC2)cc2c(N[C@H](C)c3cccc(C(F)(F)F)c3C)nc(C)nc12 [SZ-022304],0.00698,0.079
[2H]C([2H])([2H])Oc1c(=O)n(C2(C(F)F)CC2)cc2c(N[C@H](C)c3cccc(C(F)F)c3F)nc(C)nc12 [SZ-022295],0.00815,0.256
Cc1nc(N[C@H](C)c2cccc(C(F)(F)F)c2C)c2cn(C3(C)CC3)c(=O)c(S(C)(=O)=O)c2n1 [SZ-022371],0.0218,0.274
COc1c(=O)n(C2(C)CCOC2)cc2c(N[C@H](C)c3cccc(C(F)F)c3F)nc(C)nc12 (stereo partly drawn) [SZ-022328],0.0097,0.309
CCOc1c(=O)n(C2(CF)CC2)cc2c(N[C@H](C)c3cccc(C(F)F)c3F)nc(C)nc12 [SZ-022363],0.00736,0.171

SMILES,IC50 [1] [µM],IC50 [2] [µM]
COc1c(=O)n(C2(C(F)(F)F)CC2)cc2c(N[C@H](C)c3cccc(C#N)c3C)nc(C)nc12 [SZ-022383],0.0185,0.985
COc1c(=O)n(C2(C(F)F)CC2)cc2c(N[C@H](C)c3cccc(C#N)c3C)nc(C)nc12 [SZ-022381],0.0123,0.741
[2H]C([2H])([2H])Oc1c(=O)n(C2(C(F)F)CC2)cc2c(N[C@H](C)c3cccc(C(C)(F)F)c3F)nc(C)nc12 [SZ-022355],0.00247,0.112
COc1c(=O)n(C2(C(F)F)CC2)cc2c(N[C@H](C)c3cccc(C(F)(F)F)c3)nc(C)nc12 [SZ-022348],0.0218,0.614
CCC1(n2cc3c(N[C@H](C)c4cccc(C(F)F)c4F)nc(C)nc3c(OC)c2=O)CC1 [SZ-022343],0.0267,
Cc1nc(N[C@H](C)c2cccc(C(F)F)c2F)c2cn(C3(C(F)F)CC3)c(=O)c(OCCO)c2n1 [SZ-022352],0.016,0.516
COc1c(=O)n(C2(C(F)F)CC2)cc2c(N[C@H](C)c3cccc(C(C)(F)F)c3F)nc(C)nc12 [SZ-022303],0.00977,0.128
COc1c(=O)n(C23CC(C2)C3)cc2c(N[C@H](C)c3cccc(C(F)F)c3F)nc(C)nc12 [SZ-022345],0.0218,0.885
Cc1nc(N[C@H](C)c2cccc(C(F)F)c2F)c2cn(C3(C(F)F)CC3)c(=O)c(OC(C)C)c2n1 [SZ-022313],0.044,1.27
COc1c(=O)n(C2CC(F)(F)C2)cc2c(N[C@H](C)c3cccc(C(F)F)c3F)nc(C)nc12 [SZ-022336],0.0365,
CCOc1c(=O)n(C2(C(F)F)CC2)cc2c(N[C@H](C)c3cccc(C(F)F)c3C)nc(C)nc12 [SZ-022337],0.00414,0.174
CCOc1c(=O)n(C2(C(F)(F)F)CC2)cc2c(N[C@H](C)c3cccc(C(C)(F)F)c3F)nc(C)nc12 [SZ-022360],0.00946,0.221
COc1c(=O)n(C2(C(F)F)CC2)cc2c(N[C@H](C)c3cccc(C(F)(F)F)c3F)nc(C)nc12 [SZ-022349],0.00723,0.193
Cc1nc(N[C@H](C)c2cccc(C(F)F)c2F)c2cn(C3(C(F)F)CC3)c(=O)c(O[C@H]3CCOC3)c2n1 [SZ-022351],0.0214,0.555
CCS(=O)(=O)c1c(=O)n(C2(C(F)F)CC2)cc2c(N[C@H](C)c3cccc(C(F)F)c3F)nc(C)nc12 [SZ-022372],0.0367,
COc1c(=O)n(C2CCN(C(=O)C3CC3)CC2)cc2c(N[C@H](C)c3cccc(C(F)F)c3F)nc(C)nc12 [SZ-022335],0.0279,
COc1c(=O)n(C2CCOCC2)cc2c(N[C@H](C)c3cccc(C(F)F)c3F)nc(C)nc12 [SZ-022326],0.0105,
COc1c(=O)n(C2(C#N)CC2)cc2c(N[C@H](C)c3cccc(C(F)F)c3F)nc(C)nc12 [SZ-022344],0.0237,
